Reference: patent publication US20190256819A1, “PROCESS FOR IMPROVING THE DISSOLUTION BEHAVIOUR OF COMPONENTS IN AQUEOUS SOLUTIONS” (Merck Patent GmbH, priority 2016, published 2019)

Assay: Measurement of dissolution enthalpy by solution calorimetry (TAM IV Microcalorimeter), relative temperature as a function of time
Format: physicochemical
Conditions: 250 mg sample in 100 mL water, 25° C., stirring at 500 rpm, ampoule broken; FIGS. 1-4
Description: The TAM IV Microcalorimeter was used to detect temperature changes of solutions with an accuracy of 0.001 K, which evolves from the dissolution enthalpy of the substances being tested.
Different formulations of amino acids are placed in an ampoule, surrounded by aqueous solvent. After the ampoule has been ruptured, the temperature change is analyzed.
Experimental Setup: • 250 mg of each sample were filled into a 1 mL crushing ampoule at ambient conditions without any pre-treatment. • The ampoules were closed with a silicone stopper and wax and inserted into the stirrer of the solution calorimeter and immersed into 100 mL water. • The system was then equilibrated at 25° C. while stirring at 500 rpm before the ampoule was broken. • Calibrations with a heat pulse of 2.5 J at a power of 250 mW were performed before and after the break. • For data evaluation, the slope of the baseline before breaking the sample was set to zero by differentiation of the curve, shift to zero and re-integration.
For spray dried multicomponent amino acids the enthalpy of solution measurement have been carried out on a special ampule calorimeter equipped with an isothermal shell. In the course of the calorimetry measurement, the stability of the temperature-control system was maintained constant to within 10^−4K. All experiments were performed three times and were reproducible within 5%.

| SMILES | Relative temperature as a function of time on dissolution (enthalpy of solution) |
| --- | --- |
| CC(C)C[C@H](N)C(=O)O [L-leucine] | steady decrease in the temperature |
| O=C(O)[C@@H]1CCCN1 [L-proline] | strong increase in the temperature is observed followed by a continous decrease |
